Experiments:
[1] = polarographic oxidation potential (Example 31); assay type: physicochemical; conditions: 0.5 m.mole/liter; methanol/acetic acid; 35° C.
Protocol: platinum counter-electrode and calomel electrode with filling by a saturated aqueous solution of lithium chloride.
The measurements were carried out in the following solvent:
90 parts of an 0.1 M solution of lithium perchlorate in methanol, 10 parts of a 0.1 M solution of perchloric acid in acetic acid. square voltage superimposed with constant pulses of +10 millivolts, initial potential: 500 millivolts, scanning voltage: 1000 millivolts in the anode direction, oxidation at the vitreous carbon electrode (speed of rotation: 2000 r.p.m.)

[2] = polarographic study of the oxidation potential (Example 30); assay type: physicochemical; conditions: acetonitrile, lithium perchlorate; calomel electrode; in V (unit assumed)
Source text: 261. Polarographic study of the oxidation potential […]
reference electrode: a calomel electrode which contains, as junction liquid, a saturated solution of anhydrous lithium perchlorate working electrode: rotating electrode of vitreous carbon (2500 r.p.m.) counter-electrode: platinum. acetonitrile, having a water content smaller than 0.1% and not presenting any polarographic waves between -2.5 volts and +2.5 volts.
0.1 M solution of lithium perchlorate in acetonitrile, treated and preserved on a molecular screen of 4 A. […]
exploration amplitude: 0 to 2 V exploration speed: 10 mV/sec.

[3] = thermostability of rigid vinyl chloride-vinylidene chloride copolymer, ventilated oven at 210° C.; conditions: 0.15 p.c.r.; Example 29
Protocol: Rigid copolymer formula vinyl chloride-vinylidene chloride copolymer.
Passage through a ventilated oven at 210° C.
Passage through ventilated oven at 210° C.
Passage in ventilated oven at 210° C.

[4] = migration of stabiliser from PVC into solutions or solvents simulating foods at 50° C.; assay type: physicochemical
Protocol: (§1) The technique as regards extraction was the following: using the formula which is given below, a batch of bottles (volume 1 liter, diameter 70 mm, height.perspectiveto.230 mm) was prepared, the said bottles being filled with a liquid simulating the foods. […] The migration of the stabiliser was judged by dosage of the pyridine present in the extractum, using the dosage method which is later described. This pyridine obviously represents the oxidised form of the extracted 1,4-dihydropyridine.
(§2) The stabilisers are measured out in the form of their oxidation product (pyridine).
(§3) The oxidation is made quantitative by adding a few drops of iodine to the solution. The latter is then extracted with chloroform and the chloroform is evaporated to a small residual volume. The solution obtained is then subjected to thin-film chromatography, by comparison with solutions of known concentration of the desired pyridines.
(§4) The sensitivity threshold of this technique is 5 μg/liter.
For justifying the possibility of using the dihydropyridines (I) having a radical R comprising from 9 to 22 carbon atoms in applications concerned with food packaging, other than those applications relating to mineral waters, the extractability of the dihydropyridines by several solutions or solvents having the following composition, by weight, was investigated:
(a) water-sodium chloride: 97-3
(b) water-saccharose: 90-10
(c) water-sodium chloride-acetic acid: 98.5-0.5-1
(d) water-citric acid (solution at pH=5): 98-2
(e) water-acetic acid: 97-3
(f) water-acetic acid: 90-10
(h) water-acetic acid: 50-50

[5] = migration of stabiliser from PVC bottles into water at 50° C.; assay type: physicochemical; conditions: water 50° C.
Protocol: 2.2--Study of the migration
The migration or the extractability of the stabiliser from the PVC compound under the effect of various liquids (and particularly water) stored in a plastic container is of essential importance for the use of these stabilisers in the field of food packagings.
as §1
The investigation was particularly developed for water at 50° C. over a period of 2 months, because it represents the important problem regarding the packaging of mineral waters.
Formula for the manufacture of bottles
The S L 2016 is a solution of zinc 2-ethyl hexanoate in a mixture of aromatic hydrocarbons boiling from 158° to 184° C.
as §2, §3, §4

[6] = stabilisation of plasticised polyvinyl chloride resins: mixing at 180° C., pressing at 170° C.; conditions: for Colour stability / Thermal stability: 180° C.
Protocol: Sheets of polyvinyl chloride, previously mixed for 5 minutes at 180° C., were pressed for 5 minutes at 170° C., and the colour stability and the heat stability after mixing, and then the coloration of the sheets after pressing, were observed.
As adjuvants, as well as the stabiliser to be tested, the resin in question contains wax E, dioctyl phthalate, barium stearate and cadmium stearate, in the following proportions: […]

[7] = sublimation at 160° C. for 6 hours under nitrogen; assay type: physicochemical
Protocol: A test sample of about 130 mg of the product to be investigated is introduced into a 100 cc beaker. The latter is placed in a 250 cc reactor. The temperature is kept at 160° C. by means of a thermostatically controlled oil bath for 6 hours, the atmosphere of the reactor being inert (nitrogen) in order to avoid the oxidation of the 1,4-dihydropyridine into pyridine, which is more sublimable.
For each dihydropyridine derivative which is investigated, the result is expressed as a percentage of sublimed product relatively to the quantity being used.

[8] = resin 5: 0.1, Ba 0.375, Cd 0.375
[9] = resin 7: 0.05, Ba 0.375, Cd 0.15
[10] = resin 9: 0.05, Ba 0.375, Cd 0.05

Oxidation potential [1]: 850 millivolts
Oxidation potential [2]: 0.74 ± 0.01
Migration ([4]; H2O/NaCl (97:3), 0.3, 1 month): 100 µg/L
Migration ([4]; H2O/NaCl (97:3), 0.3, 2 months): 120 µg/L
Migration ([4]; Heptane, 0.3 pcr, after 36 h): 300 µg/L
Migration ([4]; Heptane, 0.3 pcr, after 84 h): 390 µg/L
Migration ([4]; Water/C2H5OH (50:50), 0.3, 1 month): 250 µg/L
Migration ([4]; Water/C2H5OH (85:15), 0.3, 1 month): 150 µg/L
Migration ([4]; Water/C2H5OH (85:15), 0.3, 2 months): 180 µg/L
Migration ([4]; Water/CH3COOH (50:50), 0.3, 1 month): 150 µg/L
Migration ([4]; Water/CH3COOH (50:50), 0.3, 2 months): 200 µg/L
Migration ([4]; Water/CH3COOH (90:10), 0.3, 1 month): 120 µg/L
Migration ([4]; Water/CH3COOH (90:10), 0.3, 2 months): 140 µg/L
Migration ([4]; Water/CH3COOH (97:3), 0.3, 1 month): 90 µg/L
Migration ([4]; Water/CH3COOH (97:3), 0.3, 2 months): 120 µg/L
Migration ([4]; Water/NaCl/CH3COOH (98,5:0,5:1), 0.3, 1 month): 110 µg/L
Migration ([4]; Water/NaCl/CH3COOH (98,5:0,5:1), 0.3, 2 months): 120 µg/L
Migration ([4]; Water/Sacchrose (90:10), 0.3, 1 month): 100 µg/L
Migration ([4]; Water/Sacchrose (90:10), 0.3, 2 months): 100 µg/L
Migration ([4]; Water/citric acid (98:2), pH 5, 0.3, 1 month): 110 µg/L
Migration ([4]; Water/citric acid (98:2), pH 5, 0.3, 2 months): 130 µg/L
Migration ([5]; 0.15 pct, 1 month): 70 µg/L
Migration ([5]; 0.15 pct, 2 months): 80 µg/L
Migration ([5]; 0.15 pct, 10 days): 15 µg/L
Migration ([5]; 0.15 pct, 20 days): 40 µg/L
Migration ([5]; 0.30 pct, 1 month): 120 µg/L
Migration ([5]; 0.30 pct, 2 months): 120 µg/L
Migration ([5]; 0.30 pct, 10 days): 70 µg/L
Migration ([5]; 0.30 pct, 20 days): 100 µg/L
Colour stability [6, 8]: 50 min
Thermal stability [6, 8]: 50 min
Colour stability [6, 9]: 45 min
Thermal stability [6, 9]: 55 min
Colour stability [6, 10]: 35 min
Thermal stability [6, 10]: 50 min
% of sublimed product ([7]; 160° C., 6 hours, nitrogen): 34.2%
sublimation ([7]; of the quantity of product being used): 34%
SMILES: COC(=O)C1=C(C)NC(C)=C(C(=O)OC)C1 [L.28504, 2,6-Dimethyl-3,5-dicarbomethoxy-1,4-dihydropyridine]
thermostabilisation of copolymer versus 2-phenyl indole [3]: better result than 0.3 p.c.r. of 2-phenyl indole
basic shade and thermal stability ([6]; words): substantially improves the basic shade and clearly increases the thermal stability

Reference: patent US4209439A, “Stabilization of vinyl resins” (priority 1977, dated 1980)
